Values of other authors, collected in US6998112B2, “Sleep inducing toothpaste made with natural herbs and a natural hormone” (priority 2003, dated 2006).

Conditions: in vivo

In the case of Melatonin, the adverse effects is given as “isolated reports of exacerbation of depression and fatigue”.
